Experimental data taken from ChEMBL document CHEMBL1201862, “PubChem BioAssay data set” (2004).
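Five compound concentrations were applied to cells in 96-well plates for 48 hours; endpoints were derived by simple linear interpolation of the resulting dose-response curve. At the GI50, growth is halved.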 Activity calls are given as the source filed them. Cut-off read from the data, not from the text of the source: active = GI50 up to about 1.1 µM and inactive = higher.

Assays:
Assay in all cases: NCI tumour cell line growth inhibition, 48 h
KM12 = system: KM12
M14 = system: M14
SNB-75 = system: SNB-75
SN12C = system: SN12C
OVCAR-8 = system: OVCAR-8
NCI/ADR-RES = system: NCI/ADR-RES
HL-60 = system: HL-60
NCI-H460 = system: NCI-H460
HT-29 = system: HT-29
UACC-257 = system: UACC-257
SR = system: SR
SW-620 = system: SW-620
UACC-62 = system: UACC-62
EKVX = system: EKVX
Hs-578T = system: Hs-578T
HCT-116 = system: HCT-116
UO-31 = system: UO-31
MDA-N = system: MDA-N
SF-268 = system: SF-268
SF-539 = system: SF-539
PC-3 = system: PC-3
Malme-3M = system: Malme-3M
RPMI-8226 = system: RPMI-8226
DU-145 = system: DU-145
COLO 205 = system: COLO 205
HCC 2998 = system: HCC 2998
T47D = system: T47D
MCF7 = system: MCF7
CAKI-1 = system: CAKI-1
A549 = system: A549
ACHN = system: ACHN
CCRF-CEM = system: CCRF-CEM
OVCAR-4 = system: OVCAR-4
MDA-MB-231 = system: MDA-MB-231
SK-MEL-28 = system: SK-MEL-28
U-251 = system: U-251
NCI-H23 = system: NCI-H23
SK-MEL-5 = system: SK-MEL-5
MDA-MB-435 = system: MDA-MB-435
SK-MEL-2 = system: SK-MEL-2
OVCAR-3 = system: OVCAR-3
K562 = system: K562
HOP-62 = system: HOP-62
SNB-19 = system: SNB-19
MOLT-4 = system: MOLT-4
NCI-H522 = system: NCI-H522
LOX IMVI = system: LOX IMVI
BT-549 = system: BT-549
HCT-15 = system: HCT-15
RXF 393 = system: RXF 393
SK-OV-3 = system: SK-OV-3
IGROV-1 = system: IGROV-1
TK-10 = system: TK-10
786-0 = system: 786-0
OVCAR-5 = system: OVCAR-5
SF-295 = system: SF-295
A498 = system: A498
NCI-H226 = system: NCI-H226
HOP-92 = system: HOP-92

O=c1cc(CNC2CCCC2)[nH]c(=O)[nH]1
GI50 (KM12): > 100 µM (inactive)
GI50 (M14): > 100 µM (inactive)
GI50 (SNB-75): > 100 µM (inactive)
GI50 (SN12C): > 100 µM (inactive)
GI50 (OVCAR-8): > 100 µM (inactive)
GI50 (NCI/ADR-RES): > 100 µM (inactive)
GI50 (HL-60): > 100 µM (inactive)
GI50 (NCI-H460): > 100 µM (inactive)
GI50 (HT-29): > 100 µM (inactive)
GI50 (UACC-257): > 100 µM (inactive)
GI50 (SR): > 100 µM (inactive)
GI50 (SW-620): > 100 µM (inactive)
GI50 (UACC-62): > 100 µM (inactive)
GI50 (EKVX): > 100 µM (inactive)
GI50 (Hs-578T): > 100 µM (inactive)
GI50 (HCT-116): > 100 µM (inactive)
GI50 (UO-31): > 100 µM (inactive)
GI50 (MDA-N): > 100 µM (inactive)
GI50 (SF-268): > 100 µM (inactive)
GI50 (SF-539): > 100 µM (inactive)
GI50 (PC-3): > 100 µM (inactive)
GI50 (Malme-3M): > 100 µM (inactive)
GI50 (RPMI-8226): > 100 µM (inactive)
GI50 (DU-145): > 100 µM (inactive)
GI50 (COLO 205): > 100 µM (inactive)
GI50 (HCC 2998): > 100 µM (inactive)
GI50 (T47D): > 100 µM (inactive)
GI50 (MCF7): > 100 µM (inactive)
GI50 (CAKI-1): > 100 µM (inactive)
GI50 (A549): > 100 µM (inactive)
GI50 (ACHN): > 100 µM (inactive)
GI50 (CCRF-CEM): > 100 µM (inactive)
GI50 (OVCAR-4): > 100 µM (inactive)
GI50 (MDA-MB-231): > 100 µM (inactive)
GI50 (SK-MEL-28): > 100 µM (inactive)
GI50 (U-251): > 100 µM (inactive)
GI50 (NCI-H23): > 100 µM (inactive)
GI50 (SK-MEL-5): > 100 µM (inactive)
GI50 (MDA-MB-435): > 100 µM (inactive)
GI50 (SK-MEL-2): > 100 µM (inactive)
GI50 (OVCAR-3): > 100 µM (inactive)
GI50 (K562): > 100 µM (inactive)
GI50 (HOP-62): > 100 µM (inactive)
GI50 (SNB-19): > 100 µM (inactive)
GI50 (MOLT-4): > 100 µM (inactive)
GI50 (NCI-H522): > 100 µM (inactive)
GI50 (LOX IMVI): > 100 µM (inactive)
GI50 (BT-549): > 100 µM (inactive)
GI50 (HCT-15): > 100 µM
GI50 (RXF 393): > 100 µM (inactive)
GI50 (SK-OV-3): > 100 µM (inactive)
GI50 (IGROV-1): > 100 µM (inactive)
GI50 (TK-10): > 100 µM (inactive)
GI50 (786-0): > 100 µM (inactive)
GI50 (OVCAR-5): > 100 µM (inactive)
GI50 (SF-295): > 100 µM (inactive)
GI50 (A498): > 100 µM (inactive)

COc1cc(CC(C)NC(C)=O)cc(OC)c1 (stereo unspecified)
GI50 (KM12): > 100 µM (inactive)
GI50 (M14): > 100 µM (inactive)
GI50 (SNB-75): 34.4 µM (inactive)
GI50 (SN12C): > 100 µM (inactive)
GI50 (OVCAR-8): > 100 µM (inactive)
GI50 (NCI/ADR-RES): > 100 µM (inactive)
GI50 (HL-60): > 100 µM (inactive)
GI50 (NCI-H460): > 100 µM (inactive)
GI50 (HT-29): > 100 µM (inactive)
GI50 (UACC-257): > 100 µM (inactive)
GI50 (SR): 3.04 µM (inactive)
GI50 (SW-620): > 100 µM (inactive)
GI50 (UACC-62): > 100 µM (inactive)
GI50 (Hs-578T): > 100 µM (inactive)
GI50 (HCT-116): > 100 µM (inactive)
GI50 (UO-31): > 100 µM (inactive)
GI50 (MDA-N): > 100 µM (inactive)
GI50 (SF-268): > 100 µM (inactive)
GI50 (SF-539): > 100 µM (inactive)
GI50 (PC-3): > 100 µM (inactive)
GI50 (Malme-3M): > 100 µM (inactive)
GI50 (RPMI-8226): > 100 µM (inactive)
GI50 (DU-145): > 100 µM (inactive)
GI50 (COLO 205): > 100 µM (inactive)
GI50 (HCC 2998): > 100 µM (inactive)
GI50 (T47D): > 100 µM (inactive)
GI50 (MCF7): > 100 µM (inactive)
GI50 (CAKI-1): > 100 µM (inactive)
GI50 (NCI-H226): > 100 µM (inactive)
GI50 (A549): > 100 µM (inactive)
GI50 (ACHN): > 100 µM (inactive)
GI50 (CCRF-CEM): > 100 µM (inactive)
GI50 (MDA-MB-231): > 100 µM (inactive)
GI50 (SK-MEL-28): > 100 µM (inactive)
GI50 (U-251): > 100 µM (inactive)
GI50 (NCI-H23): > 100 µM (inactive)
GI50 (SK-MEL-5): > 100 µM (inactive)
GI50 (MDA-MB-435): > 100 µM (inactive)
GI50 (SK-MEL-2): > 100 µM (inactive)
GI50 (OVCAR-3): > 100 µM (inactive)
GI50 (K562): > 100 µM (inactive)
GI50 (HOP-62): > 100 µM (inactive)
GI50 (SNB-19): > 100 µM (inactive)
GI50 (MOLT-4): > 100 µM (inactive)
GI50 (NCI-H522): > 100 µM (inactive)
GI50 (LOX IMVI): > 100 µM (inactive)
GI50 (BT-549): > 100 µM (inactive)
GI50 (HCT-15): > 100 µM
GI50 (RXF 393): > 100 µM (inactive)
GI50 (SK-OV-3): > 100 µM (inactive)
GI50 (IGROV-1): > 100 µM (inactive)
GI50 (TK-10): > 100 µM (inactive)
GI50 (786-0): > 100 µM (inactive)
GI50 (OVCAR-5): > 100 µM (inactive)
GI50 (SF-295): > 100 µM (inactive)
GI50 (A498): > 100 µM (inactive)

CC(=O)OC(OC(C)=O)c1c2ccccc2cc2ccccc12
GI50 (KM12): 6.93 µM (inactive)
GI50 (M14): 20.5 µM (inactive)
GI50 (SNB-75): 17.3 µM (inactive)
GI50 (SN12C): 12.9 µM (inactive)
GI50 (OVCAR-8): 15.5 µM (inactive)
GI50 (NCI/ADR-RES): 8.34 µM (inactive)
GI50 (HOP-92): 21.4 µM (inactive)
GI50 (HL-60): 23.7 µM (inactive)
GI50 (NCI-H460): 14.6 µM (inactive)
GI50 (HT-29): 13.4 µM (inactive)
GI50 (UACC-257): 21 µM (inactive)
GI50 (SR): 9.53 µM (inactive)
GI50 (SW-620): 3.18 µM (inactive)
GI50 (UACC-62): 15.9 µM (inactive)
GI50 (EKVX): 20 µM (inactive)
GI50 (Hs-578T): 23.2 µM (inactive)
GI50 (HCT-116): 10.3 µM (inactive)
GI50 (UO-31): 19.3 µM (inactive)
GI50 (MDA-N): 22 µM (inactive)
GI50 (SF-268): 18.4 µM (inactive)
GI50 (SF-539): 14.8 µM (inactive)
GI50 (PC-3): 3.59 µM (inactive)
GI50 (RPMI-8226): 16.6 µM (inactive)
GI50 (DU-145): 27.9 µM (inactive)
GI50 (COLO 205): 17.8 µM (inactive)
GI50 (HCC 2998): 15.6 µM (inactive)
GI50 (T47D): 17.2 µM (inactive)
GI50 (MCF7): 16.5 µM (inactive)
GI50 (CAKI-1): 30.5 µM (inactive)
GI50 (NCI-H226): 17.9 µM (inactive)
GI50 (A549): 19.1 µM (inactive)
GI50 (ACHN): 24.1 µM (inactive)
GI50 (CCRF-CEM): 2.39 µM (inactive)
GI50 (MDA-MB-231): 18 µM (inactive)
GI50 (U-251): 5.98 µM (inactive)
GI50 (NCI-H23): 25.1 µM (inactive)
GI50 (SK-MEL-5): 11.9 µM (inactive)
GI50 (MDA-MB-435): 24.6 µM (inactive)
GI50 (OVCAR-3): 21.4 µM (inactive)
GI50 (K562): 3.56 µM (inactive)
GI50 (SNB-19): 14.8 µM (inactive)
GI50 (MOLT-4): 2.78 µM (inactive)
GI50 (LOX IMVI): 4.35 µM (inactive)
GI50 (BT-549): 14.9 µM (inactive)
GI50 (HCT-15): 7.55 µM
GI50 (RXF 393): 13.3 µM (inactive)
GI50 (SK-OV-3): 20.9 µM (inactive)
GI50 (IGROV-1): 21.2 µM (inactive)
GI50 (TK-10): 20.4 µM (inactive)
GI50 (786-0): 20.3 µM (inactive)
GI50 (OVCAR-5): 30.5 µM (inactive)
GI50 (SF-295): 20.7 µM (inactive)
GI50 (A498): 17.7 µM (inactive)
